According to ChEMBL document CHEMBL1201862, “PubChem BioAssay data set” (2004):
Calls of active or inactive are those of the source. Cut-off read from the data, not from the text of the source, for most assays here: active = IC50 of 5 µM or less and inactive = more.

What was measured:
[1] = P. falciparum Dd2 growth inhibitors, dose response, SYBR Green, cherry-picked samples (AID 1159567); assay type: functional, cell-based
[2] = HepG2 cell cytotoxicity, dose response, cytotoxicity control, cherry-picked samples (AID 1159577); assay type: functional, cell-based
[3] = Mtb BioA inhibitors by displacement, dose response, biochemical, coupled fluorescence displacement, 20-point, dry powder (AID 743357); assay type: functional
[4] = P. falciparum Dd2 growth inhibitors, dose response, SYBR Green, dry powder samples (AID 1159566); assay type: functional, cell-based;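 note: potency for growth inhibition with lower SYBR green DNA signal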
[5] = P. falciparum ATP4 D1247Y mutant growth inhibitors, dose response, NITD609-resistant line, SYBR Green, dry powder (AID 1159571); assay type: functional, cell-based;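 note: parasites synchronized at ring stage by sorbitol before testing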
[6] = P. falciparum 3D7-ScDHODH growth inhibitors, dose response, SYBR Green, dry powder samples (AID 1159570); assay type: functional, cell-based;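 note: parasite growth measured after 72 hours of compound exposure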
[7] = cytotoxicity toward HCT116 cells – cell-based, CellTiter-Glo luminescence, IC50, dose response (AID 1117332); assay type: functional; conditions: HCT-116
[8] = CellTiter-Glo luminescent dose response of DLD-1 viability loss (AID 1117352); assay type: functional
[9] = RKO cell viability reduction, dose response, CellTiter-Glo luminescence (AID 1117322); assay type: functional
[10] = HCT116 cell viability decrease, GSK3B pretreatment – CellTiter-Glo, IC50, dose response (AID 1117339); assay type: functional; conditions: HCT-116
[11] = cytotoxicity toward Colo320 cells – cell-based, CellTiter-Glo luminescence, IC50, dose response (AID 1117334); assay type: functional; conditions: COLO 320
[12] = Concentration-dependent survival of SW480 colon cancer line, luminescence detection with CellTiter-Glo, half-maximal inhibitory concentration (AID 1117338); assay type: functional
[13] = cytotoxicity toward HT-29 cells – cell-based, CellTiter-Glo luminescence, IC50, dose response (AID 1117330); assay type: functional
[14] = SNU-C1 cell viability reduction, dose response, CellTiter-Glo luminescence (AID 1117323); assay type: functional, cell-based
[15] = half-maximal inhibitory concentration for glucagon-like peptide-1 release, STC-1 cell line, dose-response (AID 1117345); assay type: functional, cell-based
[16] = Glucagon-like peptide 1 release potency, NCI-H716 cell line, dose-response, half-maximal inhibitory concentration (AID 1117344); assay type: functional, cell-based
[17] = Dose-response inhibition of insulin secretion in a rat insulinoma line at 5 mM glucose (AID 1117331); assay type: functional, cell-based; conditions: INS-1E

## Cc1cccc(S(=O)(=O)N2CCCCN3[C@@H](CO)[C@@H](c4ccc(C#CC(C)C)cc4)[C@@H]3C2)c1
[1]
  AC50: 1.18 µM (active)
[2]
  AC50: 15.1 µM (active)

## COC(=O)c1ccc(N2CCN(C(=O)c3ccc4c(c3)OCO4)CC2)cc1
[3]
  AC50: 12.4 µM (active)

## CCC(=O)N1CCC2(CC1)CN(S(=O)(=O)c1ccccc1)[C@@H](CO)c1[nH]c3cc(OC)ccc3c12
[1]
  AC50: 2.04 µM (active)
[4]
  AC50: 1.47 µM (active)
[5]
  AC50: 0.961 µM (active)
[6]
  AC50: 1.31 µM (active)

## CN1CCC(=C2c3ccccc3C=Cc3ccccc32)CC1 [CYPROHEPTADINE]
[7]
  IC50: > 20 µM (inactive)
[8]
  IC50: > 20 µM (inactive)
[9]
  IC50: 11.3 µM (inactive)
[10]
  IC50: > 20 µM (inactive)
[11]
  IC50: > 20 µM (inactive)
[12]
  IC50: 5.92 µM (inactive)
[13]
  IC50: > 20 µM (inactive)
[14]
  IC50: 10.8 µM (inactive)

## COc1ccc(/C=N/NC(=O)c2ccncc2)cc1OC [VERAZIDE]
[15]
  IC50: > 40 µM (inactive)
[16]
  IC50: 20 µM (inactive)
[17]
  IC50: > 33.3 µM (inactive)
